Literature values, collected in US6689905B2, “Stereoisomers of 3-aminotricyclo[2.2.1.0(2.6)]heptane-1,3-dicarboxylic acid” (Wyeth, priority 2001, dated 2004).

Molecular target: type 2 mGlu receptors (Homo sapiens, UniProt Q14416)
Conditions: literature description

type 2 mGlu receptors, sequence (Q14416 19-872): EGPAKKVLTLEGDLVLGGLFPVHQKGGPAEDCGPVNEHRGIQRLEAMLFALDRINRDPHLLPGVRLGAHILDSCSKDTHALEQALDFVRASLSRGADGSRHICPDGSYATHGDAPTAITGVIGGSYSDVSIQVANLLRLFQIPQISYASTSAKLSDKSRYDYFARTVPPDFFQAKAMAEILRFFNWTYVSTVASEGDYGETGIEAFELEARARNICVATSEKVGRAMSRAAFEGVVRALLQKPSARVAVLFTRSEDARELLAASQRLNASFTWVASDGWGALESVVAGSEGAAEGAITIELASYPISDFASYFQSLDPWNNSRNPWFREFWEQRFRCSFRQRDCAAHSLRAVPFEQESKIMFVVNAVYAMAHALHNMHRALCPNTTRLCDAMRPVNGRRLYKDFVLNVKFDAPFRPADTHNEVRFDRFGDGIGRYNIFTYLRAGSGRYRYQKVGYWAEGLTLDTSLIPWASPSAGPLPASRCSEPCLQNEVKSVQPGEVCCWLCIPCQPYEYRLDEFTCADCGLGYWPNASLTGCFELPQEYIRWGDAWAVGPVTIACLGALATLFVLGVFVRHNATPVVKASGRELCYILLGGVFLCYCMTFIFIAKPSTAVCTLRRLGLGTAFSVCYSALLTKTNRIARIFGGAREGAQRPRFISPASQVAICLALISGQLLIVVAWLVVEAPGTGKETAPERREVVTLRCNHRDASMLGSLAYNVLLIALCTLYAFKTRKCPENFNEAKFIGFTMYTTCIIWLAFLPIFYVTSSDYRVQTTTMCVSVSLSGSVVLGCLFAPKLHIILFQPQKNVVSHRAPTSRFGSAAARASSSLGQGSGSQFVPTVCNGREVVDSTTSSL

## NC1(C(=O)O)CC2CCC1C2C(=O)O (stereo not drawn) [ABHD-I, 2-endo-aminobicyclo[2.2.1]heptane-2-exo-7-anti-dicarboxylic acid]
  functional character at type 2 mGlu receptors: agonists
